Experiments:
Type in all cases: in vivo
[1] = test system: common (oilseed) sunflower (Helianthus annuus); experiment: Test B pre-/postemergence plant response; details: Preemergence
Summary of the method: (§1)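 Visual scoring from 0 (no effect) to 100 (complete control) against untreated controls was done 13 to 15 days after greenhouse treatment. Chemicals were formulated in a surfactant-containing non-phytotoxic solvent and applied to soil preemergence or to 1- to 4-leaf (2-18 cm) plants postemergence.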

[2] = test system: corn (Zea mays); experiment: Test B pre-/postemergence plant response; details: for Corn plant response rating: 8 g ai/ha
Summary of the method: as §1

[3] = test system: downy bromegrass (Bromus tectorum); experiment: Test B pre-/postemergence plant response; details: for Bromegrass, Downy plant response rating: 8 g ai/ha
Summary of the method: as §1

[4] = test system: green foxtail (Setaria viridis); experiment: Test B pre-/postemergence plant response; details: for Foxtail, Green plant response rating: 8 g ai/ha
Summary of the method: as §1

[5] = test system: large crabgrass (Digitaria sanguinalis); experiment: Test B pre-/postemergence plant response; details: for Crabgrass, Large plant response rating: 8 g ai/ha
Summary of the method: as §1

[6] = test system: morningglory (Ipomoea coccinea); experiment: Test B pre-/postemergence plant response; details: for Morningglory plant response rating: 8 g ai/ha
Summary of the method: as §1

[7] = test system: surinam grass (Brachiaria decumbens); experiment: Test B pre-/postemergence plant response; details: for Surinam Grass plant response rating: 8 g ai/ha
Summary of the method: as §1

[8] = test system: velvetleaf (Abutilon theophrasti); experiment: Test B pre-/postemergence plant response; details: for Velvetleaf plant response rating: 8 g ai/ha
Summary of the method: as §1

[9] = test system: wheat (Triticum aestivum); experiment: Test B pre-/postemergence plant response; details: for Wheat plant response rating: 8 g ai/ha
Summary of the method: as §1

[10] = test system: wild oat (Avena fatua); experiment: Test B pre-/postemergence plant response; details: for Oat, Wild plant response rating: 8 g ai/ha
Summary of the method: as §1

[11] = test system: barnyardgrass (Echinochloa crus-galli); experiment: Test B flooded paddy test plant response
Summary of the method: (§2)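 2-leaf plants; pots flooded 3 cm above soil; compound added to paddy water; depth maintained. Greenhouse 13–15 d. Visual rating vs controls, 0 (no effect) to 100 (complete control); dash = no result.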

[12] = test system: ducksalad (Heteranthera limosa); experiment: Test B flooded paddy test plant response
Summary of the method: as §2

[13] = test system: rice (Oryza sativa); experiment: Test B flooded paddy test plant response
Summary of the method: as §2

[14] = test system: umbrella sedge (Cyperus difformis); experiment: Test B flooded paddy test plant response
Summary of the method: as §2

[15] = Postemergence, 16 g ai/ha, scale 0 to 100
[16] = Postemergence, 31 g ai/ha, scale 0 to 100, 0 no effect, 100 complete control
[17] = Postemergence, 62 g ai/ha, scale 0 to 100, 0 no effect, 100 complete control
[18] = Preemergence, 16 g ai/ha, scale 0 to 100 (0 no effect, 100 complete control)
[19] = Preemergence, 31 g ai/ha, 0 to 100 scale, 0 no effect, 100 complete control
[20] = Preemergence, 62 g ai/ha, scale 0 to 100
[21] = Flood (flooded paddy test), 62 g ai/ha, scale 0 to 100, 0 no effect, 100 complete control
[22] = Flood (flooded paddy test), 125 g ai/ha, scale 0 to 100, 0 no effect, 100 complete control
[23] = Flood (flooded paddy test), 250 g ai/ha, scale 0 to 100, 0 no effect, 100 complete control
[24] = Flood, 31 g ai/ha, scale 0 to 100

## Cc1cc(-c2ccc(Cl)cc2)nn1-c1c(OS(C)(=O)=O)cnn(C)c1=O [Compound 36]
[1]; 16 g ai/ha, scale 0 to 100 (0 no effect, 100 complete control)
  Plant response rating, Sunflower: 0
[1]; 31 g ai/ha, 0 to 100 scale, 0 no effect, 100 complete control
  Plant response rating, Sunflower: 0
[1]; 62 g ai/ha, scale 0 to 100
  Plant response rating, Sunflower: 0
[1]; 8 g ai/ha, scale 0 to 100
  Sunflower plant response rating: 0
[2]; postemergence, 0-100 scale
  Corn plant response rating: 10
[2]; [15]
  Plant response rating, Corn: 15
[2]; [16]
  Plant response rating, Corn: 15
[2]; [17]
  Plant response rating, Corn: 40
[2]; [18]
  Plant response rating, Corn: 55
[2]; [19]
  Plant response rating, Corn: 70
[2]; [20]
  Plant response rating, Corn: 95
[2]; Preemergence, scale 0 to 100
  Corn plant response rating: 40
[3]; postemergence, 0-100 scale
  Bromegrass, Downy plant response rating: 0
[3]; [15]
  Plant response rating, Bromegrass, Downy: 5
[3]; [16]
  Plant response rating, Bromegrass, Downy: 40
[3]; [17]
  Plant response rating, Bromegrass, Downy: 50
[3]; [18]
  Plant response rating, Bromegrass, Downy: 50
[3]; [19]
  Plant response rating, Bromegrass, Downy: 50
[3]; [20]
  Plant response rating, Bromegrass, Downy: 90
[3]; Preemergence, scale 0 to 100
  Bromegrass, Downy plant response rating: 0
[4]; postemergence, 0-100 scale
  Foxtail, Green plant response rating: 0
[4]; [15]
  Plant response rating, Foxtail, Green: 50
[4]; [16]
  Plant response rating, Foxtail, Green: 60
[4]; [17]
  Plant response rating, Foxtail, Green: 70
[4]; [18]
  Plant response rating, Foxtail, Green: 100
[4]; [19]
  Plant response rating, Foxtail, Green: 100
[4]; [20]
  Plant response rating, Foxtail, Green: 100
[4]; Preemergence, scale 0 to 100
  Foxtail, Green plant response rating: 50
[5]; postemergence, 0-100 scale
  Crabgrass, Large plant response rating: 50
[5]; [15]
  Plant response rating, Crabgrass, Large: 65
[5]; [16]
  Plant response rating, Crabgrass, Large: 90
[5]; [17]
  Plant response rating, Crabgrass, Large: 100
[5]; [18]
  Plant response rating, Crabgrass, Large: 98
[5]; [19]
  Plant response rating, Crabgrass, Large: 100
[5]; [20]
  Plant response rating, Crabgrass, Large: 100
[5]; Preemergence, scale 0 to 100
  Crabgrass, Large plant response rating: 98
[6]; postemergence, 0-100 scale
  Morningglory plant response rating: 0
[6]; [15]
  Plant response rating, Morningglory: 0
[6]; [16]
  Plant response rating, Morningglory: 0
[6]; [17]
  Plant response rating, Morningglory: 0
[6]; [18]
  Plant response rating, Morningglory: 0
[6]; [19]
  Plant response rating, Morningglory: 0
[6]; [20]
  Plant response rating, Morningglory: 0
[6]; Preemergence, scale 0 to 100
  Morningglory plant response rating: 0
[7]; postemergence, 0-100 scale
  Surinam Grass plant response rating: 70
[7]; [15]
  Plant response rating, Surinam Grass: 85
[7]; [17]
  Plant response rating, Surinam Grass: 100
[7]; [18]
  Plant response rating, Surinam Grass: 100
[7]; [19]
  Plant response rating, Surinam Grass: 100
[7]; [20]
  Plant response rating, Surinam Grass: 100
[7]; Preemergence, scale 0 to 100
  Surinam Grass plant response rating: 70
[8]; postemergence, 0-100 scale
  Velvetleaf plant response rating: 0
[8]; [15]
  Plant response rating, Velvetleaf: 0
[8]; [17]
  Plant response rating, Velvetleaf: 0
[8]; [18]
  Plant response rating, Velvetleaf: 0
[8]; [19]
  Plant response rating, Velvetleaf: 0
[8]; [20]
  Plant response rating, Velvetleaf: 0
[8]; Preemergence, scale 0 to 100
  Velvetleaf plant response rating: 0
[9]; postemergence, 0-100 scale
  Wheat plant response rating: 0
[9]; [15]
  Plant response rating, Wheat: 5
[9]; [17]
  Plant response rating, Wheat: 85
[9]; [18]
  Plant response rating, Wheat: 0
[9]; [19]
  Plant response rating, Wheat: 5
[9]; [20]
  Plant response rating, Wheat: 60
[9]; Preemergence, scale 0 to 100
  Wheat plant response rating: 0
[10]; postemergence, 0-100 scale
  Oat, Wild plant response rating: 0
[10]; [15]
  Plant response rating, Oat, Wild: 50
[10]; [16]
  Plant response rating, Oat, Wild: 60
[10]; [17]
  Plant response rating, Oat, Wild: 90
[10]; [18]
  Plant response rating, Oat, Wild: 50
[10]; [19]
  Plant response rating, Oat, Wild: 90
[10]; [20]
  Plant response rating, Oat, Wild: 95
[10]; Preemergence, scale 0 to 100
  Oat, Wild plant response rating: 0
[11]; [21]
  Plant response rating, Barnyardgrass: 0
[11]; [22]
  Plant response rating, Barnyardgrass: 0
[11]; [23]
  Plant response rating, Barnyardgrass: 0
[11]; [24]
  Plant response rating, Barnyardgrass: 0
[12]; [21]
  Plant response rating, Ducksalad: 0
[12]; [22]
  Plant response rating, Ducksalad: 0
[12]; [23]
  Plant response rating, Ducksalad: 0
[12]; [24]
  Plant response rating, Ducksalad: 0
[13]; [21]
  Plant response rating, Rice: 0
[13]; [22]
  Plant response rating, Rice: 0
[13]; [23]
  Plant response rating, Rice: 0
[13]; [24]
  Plant response rating, Rice: 0
[14]; [21]
  Plant response rating, Sedge, Umbrella: 0
[14]; [22]
  Plant response rating, Sedge, Umbrella: 0
[14]; [23]
  Plant response rating, Sedge, Umbrella: 0
[14]; [24]
  Plant response rating, Sedge, Umbrella: 0

From patent US20100267561A1, “HERBICIDAL PYRIDAZINONE DERIVATIVES” (priority 2007, published 2010)
